Key:
Assay type in all cases: in vivo
Glycine Max (GLXMA) = experiment: Pre-harvest desiccation of crop plants; details: Table E, evaluated after 7 and 14 days (which not stated), 100=total damage to plant, 0=no damage
Procedure: (§1) Seeds of a variety of test species were sown in standard loam based soil in pots. After cultivation from between 21 and 28 days (post-emergence) under controlled conditions in a glasshouse (at 24/16° C., day/night; 14 hours light; 65% humidity) for warm climate species and (at 20/16° C. day/night; 15 hours light; 65% humidity) for cool climate species.
(§2) The plants were sprayed with an aqueous spray solution derived from dissolving the technical active ingredient formula in a small amount of acetone and a special solvent and emulsifier mixture referred to as IF50 (11.12% Emulsogen EL360 TM+44.44% N-methylpyrrolidone+44.44% Dowanol DPM glycol ether), to create a 50 g/I solution which was then diluted to required concentration using a solution of 1% Empicol ESC70 (Sodium lauryl ether sulphate)+1% ammonium sulphate in water as diluent.
(§3) The delivery of the aqueous spray solution was via a laboratory track sprayer which delivered the aqueous spray composition at a rate of 200 litres per hectare, using a flat fan nozzle (Teejet 11002VS) and an application volume of 200 litre/ha (at 2 bar).
(§4) The test plants were then grown in a glasshouse under controlled conditions (at 24/16° C., day/night; 14 hours light; 65% humidity) for warm climate species and (at 20/16° C. day/night; 15 hours light; 65% humidity) for cool climate species and watered twice daily. After 7 and 14 days the test was evaluated (100=total damage to plant; 0=no damage to plant).
(§5) A value of n/t indicates not tested.
(§6) Glycine Max (GLXMA), Solanum turberosum (SOLTU), Gossypium hirsutum (GOSHI), Brassica napus (BRSNN), Helianthus annus (HELAN)

[1] = tested on: Gossypium hirsutum (GOSHI); experiment: Pre-harvest desiccation of crop plants; details: Table E, evaluated after 7 and 14 days (which not stated), 100=total damage to plant, 0=no damage
Procedure: as §1, §2, §3, §4, §5, §6

Brassica napus (BRSNN) = experiment: Pre-harvest desiccation of crop plants; details: Table E, evaluated after 7 and 14 days (which not stated), 100=total damage to plant, 0=no damage
Procedure: as §1, §2, §3, §4, §5, §6

[2] = tested on: Solanum turberosum (SOLTU); experiment: Pre-harvest desiccation of crop plants; details: Table E, evaluated after 7 and 14 days (which not stated), 100=total damage to plant, 0=no damage
Procedure: as §1, §2, §3, §4, §5, §6

Lolium perenne (LOLPE) = experiment: Post-emergence efficacy, Method A; details: Application rate 500 g/Ha; evaluated after 13 days; 100=total damage to plant, 0=no damage to plant
Method in brief: (§7)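 Plants grown 14 days in glasshouse (24/16 °C, 14 h light, 65% humidity) were sprayed with compound formulated in IF50. The spray was diluted in 0.25% or 1% Empicol ESC70 plus 1% ammonium sulphate. Damage was scored 13 days later on a 0-100 scale, where 100 is total damage.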

[3] = tested on: Euphorbia heterophylla (EPHHL); experiment: Post-emergence efficacy, Method A; details: Application rate 500 g/Ha; evaluated after 13 days; 100=total damage to plant, 0=no damage to plant
Method in brief: as §7

Eleusine indica (ELEIN) = experiment: Post-emergence efficacy, Method A; details: Application rate 500 g/Ha; evaluated after 13 days; 100=total damage to plant, 0=no damage to plant
Method in brief: as §7

[4] = tested on: Digitaria sanguinalis (DIGSA); experiment: Post-emergence efficacy, Method A; details: Application rate 500 g/Ha; evaluated after 13 days; 100=total damage to plant, 0=no damage to plant
Method in brief: as §7

Setaria faberi (SETFA) = experiment: Post-emergence efficacy, Method A; details: Application rate 500 g/Ha; evaluated after 13 days; 100=total damage to plant, 0=no damage to plant
Method in brief: as §7

[5] = tested on: Echinochloa crus-galli (ECHCG); experiment: Post-emergence efficacy, Method A; details: Application rate 500 g/Ha; evaluated after 13 days; 100=total damage to plant, 0=no damage to plant
Method in brief: as §7

SMILES: O=S(=O)([O-])CC[n+]1ccc(-c2ncccn2)cn1 [Compound A1, 2-(4-pyrimidin-2-ylpyridazin-1-ium-1-yl)ethanesulfonate]
- Post-emergence dessication efficacy, GLXMA (Glycine Max (GLXMA); 150 g/Ha): 68
- Post-emergence dessication efficacy, GLXMA (Glycine Max (GLXMA); 300 g/Ha): 94
- Post-emergence dessication efficacy, GLXMA (Glycine Max (GLXMA); 600 g/Ha): 98
- Post-emergence dessication efficacy, GOSHI ([1]; 150 g/Ha): 99
- Post-emergence dessication efficacy, GOSHI ([1]; 300 g/Ha): 98
- Post-emergence dessication efficacy, GOSHI ([1]; 600 g/Ha): 96
- Post-emergence dessication efficacy, BRSNN (Brassica napus (BRSNN); 150 g/Ha): 33
- Post-emergence dessication efficacy, BRSNN (Brassica napus (BRSNN); 300 g/Ha): 55
- Post-emergence dessication efficacy, BRSNN (Brassica napus (BRSNN); 600 g/Ha): 70
- Post-emergence dessication efficacy, SOLTU ([2]; 150 g/Ha): 38
- Post-emergence dessication efficacy, SOLTU ([2]; 300 g/Ha): 90
- Post-emergence dessication efficacy, SOLTU ([2]; 600 g/Ha): 60

SMILES: O=S(=O)([O-])CC[n+]1ccc(-c2cccnn2)cn1 [Compound A5, 2-(4-pyridazin-3-ylpyridazin-1-ium-1-yl)ethanesulfonate]
- Post-emergence dessication efficacy, GLXMA (Glycine Max (GLXMA); 150 g/Ha): 83
- Post-emergence dessication efficacy, GLXMA (Glycine Max (GLXMA); 300 g/Ha): 93
- Post-emergence dessication efficacy, GLXMA (Glycine Max (GLXMA); 600 g/Ha): 100
- Post-emergence dessication efficacy, GOSHI ([1]; 150 g/Ha): 82
- Post-emergence dessication efficacy, GOSHI ([1]; 300 g/Ha): 98
- Post-emergence dessication efficacy, GOSHI ([1]; 600 g/Ha): 100
- Post-emergence dessication efficacy, BRSNN (Brassica napus (BRSNN); 150 g/Ha): 50
- Post-emergence dessication efficacy, BRSNN (Brassica napus (BRSNN); 300 g/Ha): 72
- Post-emergence dessication efficacy, BRSNN (Brassica napus (BRSNN); 600 g/Ha): 82
- Post-emergence dessication efficacy, SOLTU ([2]; 150 g/Ha): 27
- Post-emergence dessication efficacy, SOLTU ([2]; 300 g/Ha): 53
- Post-emergence dessication efficacy, SOLTU ([2]; 600 g/Ha): 60

SMILES: O=C(O)CC[n+]1ccc(-c2ncccn2)cn1.[Cl-] [Compound A26, 3-(4-pyrimidin-2-ylpyridazin-1-ium-1-yl)propanoic acid chloride]
- Post-emergence dessication efficacy, GLXMA (Glycine Max (GLXMA); 150 g/Ha): 96
- Post-emergence dessication efficacy, GLXMA (Glycine Max (GLXMA); 300 g/Ha): 93
- Post-emergence dessication efficacy, GLXMA (Glycine Max (GLXMA); 600 g/Ha): 99
- Post-emergence dessication efficacy, GOSHI ([1]; 150 g/Ha): 100
- Post-emergence dessication efficacy, GOSHI ([1]; 300 g/Ha): 100
- Post-emergence dessication efficacy, GOSHI ([1]; 600 g/Ha): 100
- Post-emergence dessication efficacy, BRSNN (Brassica napus (BRSNN); 150 g/Ha): 65
- Post-emergence dessication efficacy, BRSNN (Brassica napus (BRSNN); 300 g/Ha): 97
- Post-emergence dessication efficacy, BRSNN (Brassica napus (BRSNN); 600 g/Ha): 99
- Post-emergence dessication efficacy, SOLTU ([2]; 150 g/Ha): 62
- Post-emergence dessication efficacy, SOLTU ([2]; 300 g/Ha): 95
- Post-emergence dessication efficacy, SOLTU ([2]; 600 g/Ha): 73
- Control of weed species after post-emergence application, LOLPE (Lolium perenne (LOLPE)): 90
- Control of weed species after post-emergence application, EPHHL [3]: 100
- Control of weed species after post-emergence application, ELEIN (Eleusine indica (ELEIN)): 100
- Control of weed species after post-emergence application, DIGSA [4]: 100
- Control of weed species after post-emergence application, SETFA (Setaria faberi (SETFA)): 100
- Control of weed species after post-emergence application, ECHCG [5]: 100
